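Five compound concentrations were applied to cells in 96-well plates for 48 hours; endpoints were derived by simple linear interpolation of the resulting dose-response curve. At the GI50, growth is halved.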 The source made the active and inactive calls. Rule as the data show it: active = GI50 up to about 1.1 µM and inactive = higher.
Legend:
Test in all cases: growth of human tumour cells (NCI), 48 h
KM12 = tested on: KM12
OVCAR-3 = tested on: OVCAR-3
SNB-75 = tested on: SNB-75
NCI-H522 = tested on: NCI-H522
NCI/ADR-RES = tested on: NCI/ADR-RES
DU-145 = tested on: DU-145
OVCAR-8 = tested on: OVCAR-8
CCRF-CEM = tested on: CCRF-CEM
SK-MEL-28 = tested on: SK-MEL-28
OVCAR-4 = tested on: OVCAR-4
SK-MEL-5 = tested on: SK-MEL-5
BT-549 = tested on: BT-549
COLO 205 = tested on: COLO 205
HOP-62 = tested on: HOP-62
EKVX = tested on: EKVX
OVCAR-5 = tested on: OVCAR-5
SF-539 = tested on: SF-539
LOX IMVI = tested on: LOX IMVI
SN12C = tested on: SN12C
UACC-257 = tested on: UACC-257
HL-60 = tested on: HL-60
TK-10 = tested on: TK-10
SW-620 = tested on: SW-620
MDA-N = tested on: MDA-N
UO-31 = tested on: UO-31
Hs-578T = tested on: Hs-578T
SF-295 = tested on: SF-295
HT-29 = tested on: HT-29
A549 = tested on: A549
HCC 2998 = tested on: HCC 2998
Malme-3M = tested on: Malme-3M
MOLT-4 = tested on: MOLT-4
MDA-MB-435 = tested on: MDA-MB-435
NCI-H460 = tested on: NCI-H460
K562 = tested on: K562
SF-268 = tested on: SF-268
IGROV-1 = tested on: IGROV-1
M14 = tested on: M14
SR = tested on: SR
ACHN = tested on: ACHN
RXF 393 = tested on: RXF 393
NCI-H23 = tested on: NCI-H23
MDA-MB-231 = tested on: MDA-MB-231
A498 = tested on: A498
RPMI-8226 = tested on: RPMI-8226
786-0 = tested on: 786-0
NCI-H226 = tested on: NCI-H226
U-251 = tested on: U-251
HOP-92 = tested on: HOP-92
MCF7 = tested on: MCF7
HCT-116 = tested on: HCT-116
SNB-19 = tested on: SNB-19
SK-MEL-2 = tested on: SK-MEL-2
HCT-15 = tested on: HCT-15
CAKI-1 = tested on: CAKI-1
PC-3 = tested on: PC-3
SK-OV-3 = tested on: SK-OV-3
UACC-62 = tested on: UACC-62
T47D = tested on: T47D

Measured: GI50

COC(CN(C(C)=O)C1CCC2(SCCS2)c2[nH]c3ccccc3c21)OC (stereo not drawn)
> 100 µM: HCT-15
active: LOX IMVI 0.0422 µM | UACC-257 0.773 µM | SF-295 0.207 µM
inactive: KM12 > 100 µM | OVCAR-3 > 100 µM | SNB-75 > 100 µM | NCI-H522 > 100 µM | NCI/ADR-RES > 100 µM | DU-145 > 100 µM | OVCAR-8 > 100 µM | CCRF-CEM > 100 µM | SK-MEL-28 > 100 µM | OVCAR-4 62.7 µM | SK-MEL-5 > 100 µM | BT-549 > 100 µM | COLO 205 > 100 µM | HOP-62 > 100 µM | EKVX 72.1 µM | OVCAR-5 > 100 µM | SF-539 > 100 µM | SN12C > 100 µM | HL-60 89.9 µM | TK-10 > 100 µM | SW-620 > 100 µM | MDA-N > 100 µM | UO-31 > 100 µM | Hs-578T 54.6 µM | HT-29 > 100 µM | A549 > 100 µM | HCC 2998 > 100 µM | Malme-3M > 100 µM | MOLT-4 60.8 µM | MDA-MB-435 > 100 µM | NCI-H460 > 100 µM | K562 > 100 µM | SF-268 > 100 µM | IGROV-1 > 100 µM | M14 > 100 µM | SR 57.9 µM | ACHN > 100 µM | RXF 393 38.6 µM | NCI-H23 > 100 µM | MDA-MB-231 > 100 µM | A498 > 100 µM | RPMI-8226 > 100 µM | 786-0 > 100 µM | NCI-H226 > 100 µM | U-251 > 100 µM | HOP-92 > 100 µM | MCF7 > 100 µM | HCT-116 > 100 µM | SNB-19 > 100 µM | SK-MEL-2 > 100 µM | CAKI-1 > 100 µM | PC-3 > 100 µM

CC1=NN(c2nc(N)nc(COCc3nc(N)nc(N4N=C(C)CC4(C)C)n3)n2)C(C)(C)C1
> 100 µM: HCT-15
inactive: KM12 > 100 µM | OVCAR-3 > 100 µM | SNB-75 > 100 µM | NCI-H522 > 100 µM | NCI/ADR-RES > 100 µM | DU-145 > 100 µM | OVCAR-8 > 100 µM | CCRF-CEM > 100 µM | SK-MEL-28 > 100 µM | OVCAR-4 > 100 µM | SK-OV-3 > 100 µM | SK-MEL-5 > 100 µM | BT-549 > 100 µM | UACC-62 > 100 µM | COLO 205 > 100 µM | HOP-62 > 100 µM | EKVX > 100 µM | OVCAR-5 > 100 µM | SF-539 > 100 µM | LOX IMVI > 100 µM | SN12C > 100 µM | UACC-257 > 100 µM | HL-60 > 100 µM | TK-10 > 100 µM | SW-620 > 100 µM | UO-31 > 100 µM | Hs-578T > 100 µM | SF-295 > 100 µM | HT-29 > 100 µM | A549 > 100 µM | HCC 2998 > 100 µM | MOLT-4 > 100 µM | MDA-MB-435 > 100 µM | NCI-H460 > 100 µM | K562 > 100 µM | SF-268 > 100 µM | IGROV-1 > 100 µM | M14 > 100 µM | SR > 100 µM | ACHN > 100 µM | RXF 393 > 100 µM | NCI-H23 > 100 µM | MDA-MB-231 > 100 µM | A498 > 100 µM | RPMI-8226 > 100 µM | 786-0 > 100 µM | NCI-H226 > 100 µM | U-251 > 100 µM | HOP-92 > 100 µM | MCF7 > 100 µM | HCT-116 > 100 µM | T47D > 100 µM | SNB-19 > 100 µM | SK-MEL-2 > 100 µM | CAKI-1 > 100 µM | PC-3 > 100 µM

— ChEMBL document CHEMBL1201862, “PubChem BioAssay data set” (2004)
